Data as given in patent US6812034B2, “Fetuin-MGP-mineral complex in serum assayed to determine calcification risk” (The Regents of the University of California, priority 2000, dated 2004).

How the values were obtained:
[1] = previous study (Price et al. 1981); cited from earlier work
[2] = test system: warfarin-induced artery calcification; test: artery calcification in rats treated with warfarin for 2 or 4 weeks; assay type: in vivo, rat; settings: 6.25 mg P/kg/day plus warfarin, both carotid arteries
Method: Tissues were subsequently washed extensively with buffer and extracted with 1 ml of 10% formic acid for 24 h at room temperature, as described. Calcium levels in serum were determined colorimetrically using cresolphthalein complexone (Sigma) and phosphate levels in serum and in acid tissue extracts were determined calorimetrically as described (Zhu et al. (1994) Cardiology, 85: 370-377). Tissue sectioning and staining were carried out by Biomedical Testing Services, Inc., (San Diego, Calif.). The effect of bisphosphonates on artery calcification was also examined in rats treated with warfarin alone using procedures which have been described elsewhere (Price et al. (1998) Arterioscler. Thromb. Vasc. Biol. 18: 1400-1407).

[3] = serum levels of calcium, phosphate, MGP and BGP after subcutaneous bisphosphonate; assay type: in vivo, rat; settings: for Ionic calcium / total calcium: 8 mg/100 g
Method: Rats were fed rodent diet 5001 (Purina Mills Inc., St. […] Etidronate was dissolved with 0.15 M NaCl, titrated to pH 7.4 with dilute NaOH, and administered subcutaneously to forty-day-old male rats. Control animals received injections of 0.15 M NaCl only. […] At the times indicated in FIG. 1, each rat was anesthetized with metofane and a 400 μl sample of blood was withdrawn from the jugular vein. Blood samples were allowed to clot for 15 min at room temperature and serum was obtained after centrifugation in a clinical centrifuge and then frozen rapidly on dry ice and stored at -70° C. until later analysis. The same procedure was followed for the second time course experiment (FIG. 10), with the difference that the etidronate dose was increased to 32 mg per 100 g body weight. […] Two hours later, all rats were injected with etidronate at a dose of 8 mg/100 g (t=0), and 400 μl of blood were removed from each animal at the indicated times for biochemical analyses. […] In neither control group could we detect a significant change in serum levels of calcium, phosphate, or MGP at any time point. […] Rice et al. (1994) J. Bone Min. Res. 9: 567-576). Calcium levels in serum and other samples were determined colorimetrically using cresolphthalein complexone (Sigma) and phosphate levels in serum, effluent fractions, and other samples were determined calorimetrically as described (Chen et al. (1956) Anal. Chem. 28(11): 1756-1758). For determination of ionic calcium, freshly obtained blood samples were immediately placed into a 2.5 ml gold top vacutainer tube to avoid out gassing of CO2 and the associated shift in pH. […] Electrophoresis was carried out using 4 to 20% polyacrylamide gels (Novex, Inc., San Diego, Calif.) run in Tris-glycine buffer containing SDS. Protein sequencing was carried out on bands transferred to PVDF membranes using a Procise 494 Sequencer (ABI division, PE Biosystems, Foster City, Calif.).

[4] = test system: growth plate cartilage mineralization; test: microradiograph of the proximal tibia; assay type: in vivo, rat; settings: 4 mg to 100 g rats at t=0 and 24 h, killed at 48 h
Method: These rats were exsanguinated at t=48 h. Serum was obtained at each time point and stored at -20° C. until later analysis. Tibias from the rats killed at 48 h, as well as from age-matched controls, were removed, cleaned of adhering tissue, and fixed in 70% ethanol. Tibia samples were embedded in plastic and cut into sections of 500 microns by Pathology Associates International (Frederickberg, Md.). The resulting sections were microradiographed using a Hewlett-Packard Model […] Faxitron Xray machine. All animal experiments were approved by the UCSD animal subjects committee.

## CC(O)(P(=O)(O)O)P(=O)(O)O [Etidronate, (1-hydroxyethylylidene)-bisphosphonate]
[1]
  transient elevation in serum BGP levels: 3 fold
[2]
  nmol PO4 Carotid: 55.2 ± 14.5 nmol
[3]; 4 mg/100 g body weight, 6 h, data not shown
  increase in serum calcium, phosphate and MGP compared with the 8 mg/100 g dose: smaller increase
[3]; 8 mg/100 g body weight sc
  elevation of serum calcium: 1.8 fold
  elevation of serum phosphate: 1.6 fold
  serum MGP: 12 µg/mL
  serum calcium: 4.3 mM
  serum phosphate: 5.6 mM
[3]; 8 mg/100 g sc
  time at which serum mineral complex reaches maximal levels: 6 h
  time by which serum mineral complex is cleared from serum: ≤ 24 h
  time of peak level of MGP: 6 h
  time of peak serum BGP level: 1 h
  time to half of maximal serum MGP levels: 3 h
  time to half of maximal serum calcium and phosphate levels: 1 h
[3]; 8 mg/100 g sc, by 6 h
  phosphate above control levels: 59%
  total calcium above control levels: 76%
[3]; 8 mg/100 g sc, data not shown
  maximum elevation of serum BGP: 3 fold
[3]; 1 h
  Ionic calcium: 1.47 ± 0.04 mM
  total calcium: 3.45 ± 0.34 mM
[3]; 2 h
  Ionic calcium: 1.51 ± 0.04 mM
  total calcium: 4.05 ± 0.44 mM
[3]; 6 h
  Ionic calcium: 1.46 ± 0.03 mM
  total calcium: 4.41 ± 0.43 mM
[3]; 32 mg/100 g sc
  time of maximal level in serum total calcium, phosphate and MGP: 6 to 9 h
[3]; 32 mg/100 g sc, 6 h
  level of serum ionized calcium: no increase
[3]; 32 mg/100 g sc, 24 h
  serum levels of total calcium, phosphate and MGP: remained substantially elevated
[3]; 32 mg/100 g, within 6 h
  increase in serum MGP levels: 36 fold
  increase in serum phosphate levels: 2.5 fold
  serum MGP: 18 µg/mL
  serum phosphate: 8.6 mM
  total serum calcium: 8.8 mM
[4]
  microradiograph of the proximal tibial metaphysis: alternating bands of calcification and no calcification
